In patent EP2385948B1, “FUSED THIAZOLO AND OXAZOLO PYRIMIDINONES” (Torrent Pharmaceuticals Limited, priority 2009, dated 2011):
Counter-ions that a name gives are not always drawn.

Assays:
adrenomedullin mRNA = experiment: In vitro induction of adrenomedullin mRNA (real-time PCR, normalized to 18S rRNA); type: cell-based; conditions: Hep3B cell line, relative to vehicle control; for fold induction at 200 µM: Homo sapiens, Hep3B, 6 h
Description: Hep3B cell line (ATCC HB8064) was employed. […] At the end of 6 hours, cells were lysed and total RNA was isolated. Expression of adrenomedullin mRNA along-with expression of 18S rRNA was monitored by real-time PCR. Adrenomedullin mRNA expression was normalized relative to the expression of 18S rRNA. The results were expressed as fold induction of adrenomedullin mRNA relative to vehicle treated control.

VEGF = experiment: In vitro induction of VEGF (ELISA of cell culture supernatant); type: cell-based; conditions: Homo sapiens, Hep3B cell line, 16 hours, relative to vehicle control
Description: Hep3B cell line (ATCC HB8064) was employed. […] Supernatant obtained was analyzed for VEGF by ELISA (R&D systems, USA). […]

erythropoietin = experiment: In vitro erythropoietin induction (ELISA of cell culture supernatant); conditions: Homo sapiens, Hep3B, 16 h; for fold induction at 200 µM: read-out: EPO fold induction, Hep3B cell line, 200 uM, 16 hours, relative to vehicle control
Description: Hep3B cell line (ATCC HB8064) was employed. Induction of erythropoietin was carried out for the indicated dose of compounds for 16 hours duration. At the end of 16 hours, cell culture medium was collected and centrifuged to remove any debris. Supernatant obtained was analyzed for erythropoietin by ELISA (R&D systems, USA). The results were expressed as fold induction as compared to vehicle control.

[1] = system: 5/6 nephrectomized (5/6 NX) rats; experiment: Anemia associated with chronic kidney disease, 5/6 nephrectomized rat model; type: in vivo; conditions: for fold increase in reticulocyte production index: compared to control group
Description: The efficacy of the test compound to correct anemia associated with CKD was studied in an animal model of anemia - 5/6 nephrectomized (5/6 NX) rats^15,16,17. Animals were randomized based upon anemia and kidney dysfunction parameters and divided into two groups. One group received compound-10 (20mg/kg; b.i.d. i.p) for seven days while the control received respective vehicle. Blood sampling was done on day 3 and 7 post initiation of drug administration to check early markers of anemia correction.

[2] = system: renal ischemia and reperfusion induced acute kidney injury model in rats; experiment: Renal ischemia and reperfusion induced acute kidney injury model; type: in vivo; conditions: 24hrs post initiation of ischemia, from control group
Description: The efficacy of test compound to improve renal function was evaluated in a renal ischemia and reperfusion induced acute kidney injury model in rats. The beneficial effect of the compound was evaluated using two different treatment protocols. In one protocol treatment with test compound was given before onset of ischemia (pre-treatment) and the other protocol involed treatment with test compound initiated after the onset of ischemia (post-treatment).
Pre-ischemia intervention protocol: Rats were randomised into two groups, compound treated and vehicle control. Before initiation of bilateral renal ischemia, the animals in compound treatment group received multiple doses of compound no. 10 (i.e. pre treated) and control group received vehicle by i.p route.
Post-ischemia intervention protocol: Rats were randomised into two groups, compound treated and vehicle control. After intiation of bilateral renal ischemia, the animals in compound treatment group received multiple doses of compound no. 10 (i.e. post treated) and control group received vehicle in similar fashion by i.p route.
Induction of Renal ischemia and reperfusion in rats: All animals were anesthetized with pentobarbital sodium (50 mg/kg body wt). Homeothermic blanket was used to maintain a constant body temperature of 37°C during surgery and ischemia. A midline incision was made at the ventral side to access the kidneys and both renal pedicle were isolated and occluded for 35 mins using microclips, which was verified by the change of the renal color. After an ischemic period of 35 min, the microclips were removed and reperfusion initiated. The abdomen was closed and skin & muscles sutured and animal allowed to recover. Blood sample of 300 µl was taken via sublingual vein puncture at various predetermined time points.
In both protocols tested i.e pre-ischemia intervention and post-ischemia intervention, renal function improvement was assessed by measuring serum creatinine and BUN (blood urea nitrogen) at various time points post ischemia. Results are expressed below as % reduction from their control group at 24hrs post initiation of ischemia.

[3] = day 7 of treatment, 5/6 NX rats, 20mg/kg b.i.d. i.p, compared to control
[4] = Post-ischemia intervention, i.p. 0.3mg/kg as 1st dose & 0.1mg/kg as subsequent dose
[5] = Pre-ischemia intervention, i.p. 10 mg/kg multiple dose

| SMILES | fold induction at 200 µM (adrenomedullin mRNA) | fold induction at 200 µM (VEGF) | fold induction at 200 µM (erythropoietin) | also measured |
| --- | --- | --- | --- | --- |
| O=C(O)CNC(=O)c1c(O)nc2sc3c(n2c1=O)CCN(Cc1ccc(Cl)cc1)C3 [Compound 23, {[7-(4-Chloro-benzyl)-2-hydroxy-4-oxo-5,6,7,8-tetrahydro-4H-9-thia-1,4a,7-triaza-fluorene-3-carbonyl]-amino}-acetic acid] | 2 to 4 | 2 to 4 | 9 to 16 | – |
| O=C(O)CNC(=O)c1c(O)nc2sc3c(n2c1=O)CCN(Cc1ccc(C(F)(F)F)cc1)C3 [Compound 52, {[2-Hydroxy-4-oxo-7-(4-trifluoromethyl-benzyl)-5,6,7,8-tetrahydro-4H-9-thia-1,4a,7-triaza-fluorene-3-carbonyl]-amino}-acetic acid] | 5 to 8 | – | 5 to 8 | – |
| O=C(O)CNC(=O)c1c(O)nc2sc3c(n2c1=O)CCCCC3 [Compound 82, [(2-Hydroxy-4-oxo-6,7,8,9-tetrahydro-4H,5H-10-thia-1,4a-diaza-benzo[a]azulene-3-carbonyl)-amino]-acetic acid, Disodium salt] | – | – | – | Adrenomedullin mRNA (fold induction) (adrenomedullin mRNA; 200 uM, 6 hours, Disodium salt, 360 min): +++ (+++ indicates 5-8 fold); fold induction at 50 µM (erythropoietin; read-out: EPO fold induction, Hep3B cell line, 50 uM, 16 hours, relative to vehicle control): 9 to 16 |
| CC(NC(=O)c1c(O)nc2sc3c(n2c1=O)CCCCC3)C(=O)O (centres unmarked) [Compound 32, 2-[(2-Hydroxy-4-oxo-6,7,8,9-tetrahydro-4H,5H-10-thia-1,4a-diaza-benzo[a]azulene-3-carbonyl)-amino]-propionic acid] | 2 to 4 | 2 to 4 | 9 to 16 | – |
| O=C(O)CNC(=O)c1c(O)nc2sc3c(n2c1=O)CCN(C(=O)CC1CC1)C3 [Compound 27, {[7-(2-Cyclopropyl-acetyl)-2-hydroxy-4-oxo-5,6,7,8-tetrahydro-4H-9-thia-1,4a,7-triaza-fluorene-3-carbonyl]-amino}-acetic acid] | > 8 | 2 to 4 | 9 to 16 | – |
| CC1(C)CCc2c(sc3nc(O)c(C(=O)NCC(=O)O)c(=O)n23)C1 [Compound 34, [(2-Hydroxy-7,7-dimethyl-4-oxo-5,6,7,8-tetrahydro-4H-9-thia-1,4a-diaza-fluorene-3-carbonyl)-amino]-acetic acid] | 5 to 8 | 2 to 4 | > 16 | – |
| O=C(O)CNC(=O)c1c(O)nc2sc3c(n2c1=O)CCCCC3 [Compound 10, [(2-Hydroxy-4-oxo-6,7,8,9-tetrahydro-4H,5H-10-thia-1,4a-diaza-benzo[a]azulene-3-carbonyl)-amino] -acetic acid] | > 8 | 2 to 4 | > 16 | circulating EPO levels ([1]; 5/6 NX rats, 20mg/kg b.i.d. i.p for seven days, vehicle control undetectable (<45 pg/ml)): 115 to 3900 pg/mL; fold increase in reticulocyte production index ([1]; day 3, 5/6 NX rats, 20mg/kg b.i.d. i.p): 3 fold; fold increase in reticulocyte production index ([1]; day 7, 5/6 NX rats, 20mg/kg b.i.d. i.p): 5.6 fold; increase in erythrocyte count [1, 3]: 24%; increase in hematocrit percent [1, 3]: 25%; increase in hemoglobin content [1, 3]: 30%; % reduction BUN [2, 4]: 17.0%; % reduction Ser.Creatinine [2, 4]: 31.0%; % reduction BUN [2, 5]: 18.0%; % reduction Ser.Creatinine [2, 5]: 33.0% |
| O=C(O)CNC(=O)c1c(O)nc2sc3c(n2c1=O)CCN(C(=O)Cc1ccc(Cl)cc1)C3 [Compound 28, ({7-[2-(4-Chloro-phenyl)-acetyl]-2-hydroxy-4-oxo-5,6,7,8-tetrahydro-4H-9-thia-1,4a,7-triaza-fluorene-3-carbonyl}-amino)-acetic acid] | – | – | 9 to 16 | – |
| O=C(O)CNC(=O)c1c(O)nc2sc3c(n2c1=O)CCN(Cc1ccc(Cl)c(Cl)c1)C3 [Compound 49, {[7-(3,4-Dichloro-benzyl)-2-hydroxy-4-oxo-5,6,7,8-tetrahydro-4H-9-thia-1,4a,7-triaza-fluorene-3-carbonyl]-amino}-acetic acid] | 5 to 8 | – | 5 to 8 | – |
